We go through nine molecules from patent publication US8846701B2, “Pyrazolo-quinazolines” (Nerviano Medical Sciences S.R.L., priority 2008, dated 2014).

As a reminder, the IC50 is the point on the concentration scale where inhibition reaches its midpoint. Higher therefore signals weaker potency.

The subject of the test is A2780 human ovarian cancer cells. In words: In vitro cell proliferation assay (CellTiter-Glo). Type of test: cell-based. The settings on record: 72 hours treatment. Here is the method: A2780 human ovarian and MCF7 human breast cancer cells (1250 cells/well) were seeded in white 384 well-plates in complete medium (RPMI 1640 or EMEM plus 10% Fetal bovine serum) and treated with compounds dissolved in 0.1% DMSO, 24 h after seeding. The cells were incubated at 37° C. and 5% CO2 and after 72 hours the plates were processed using CellTiter-Glo assay (Promega) following the manufacturer's instruction. CellTiter-Glo is a homogenous method based on the quantification of the ATP present, an indicator of metabolitically active cells. ATP is quantified using a system based on luciferase and D-luciferin resulting into light generation. The luminescent signal is proportional to the number of cells present in culture.
Briefly 25 μl/well reagent solution were added to each well and after 5 minutes shacking microplates were red by Envision (PerkinElmer) luminometer. The luminescent signal was proportional to the number of cells present in culture.
Inhibitory activity was evaluated comparing treated versus control data using Assay Explorer (MDL) program. IC50 was calculated using sigmoidal interpolation curve.
(ATP-based viability assays read luminescence as a measure of living cells.)
In the case of `CCc1cccc(CC)c1NC(=O)c1nn(C)c2c1CCc1cnc(Nc3ccc(C(=O)NC4CCN(C)CC4)cc3OC)nc1-2` [Compound 2, N-(2,6-diethylphenyl)-8-({2-methoxy-4-[(1-methylpiperidin-4-yl)carbamoyl]phenyl}amino)-1-methyl-4,5-dihydro-1H-pyrazolo[4,3-h]quinazoline-3-carboxamide], it took 150 nM to reach half-maximal inhibition (IC50).

In turn, `CCc1cccc(CC)c1NC(=O)c1nn(C)c2c1CCc1cnc(Nc3ccc(N4CCN(C)CC4)cc3OC(F)(F)F)nc1-2` [Compound 3, N-(2,6-diethylphenyl)-1-methyl-8-{[4-(4-methylpiperazin-1-yl)-2-(trifluoromethoxy)phenyl]amino}-4,5-dihydro-1H-pyrazolo[4,3-h]quinazoline-3-carboxamide] had an IC50 of 350 nM.

With `CCc1cccc(CC)c1NC(=O)c1nn(C)c2c1CCc1cnc(Nc3ccc(N4CCN(C)CC4)cc3OC)nc1-2` [Compound 5, N-(2,6-diethylphenyl)-8-{[2-methoxy-4-(4-methylpiperazin-1-yl)phenyl]amino}-1-methyl-4,5-dihydro-1H-pyrazolo[4,3-h]quinazoline-3-carboxamide], the concentration for half-maximal inhibition (IC50) stood at 100 nM. Compared with the last molecule, the IC50 is about 3.5-fold lower.

For the molecule `CCc1cccc(CC)c1NC(=O)c1nn(C)c2c1CCc1cnc(Nc3ccc(N(C)CCCN(C)C)cc3OC)nc1-2` [Compound 7, N-(2,6-diethylphenyl)-8-[(4-{[3-(dimethylamino)propyl](methyl)amino}-2-methoxyphenyl)amino]-1-methyl-4,5-dihydro-1H-pyrazolo[4,3-h]quinazoline-3-carboxamide], 140 nM corresponded to half-maximal inhibition (IC50).

In turn, `CCc1cccc(CC)c1NC(=O)c1nn(C)c2c1CCc1cnc(Nc3ccc(C(N)=O)cc3OC)nc1-2` [Compound 13, 8-[(4-carbamoyl-2-methoxyphenyl)amino]-N-(2,6-diethylphenyl)-1-methyl-4,5-dihydro-1H-pyrazolo[4,3-h]quinazoline-3-carboxamide] came in with an IC50 of 100 nM.

On to `CCc1cccc(CC)c1NC(=O)c1nn(C)c2c1CCc1cnc(NC3CCN(S(=O)(=O)CCNC)CC3)nc1-2` [Compound 56, N-(2,6-diethylphenyl)-1-methyl-8-[(1-{[2-(methylamino)ethyl]sulfonyl}piperidin-4-yl)amino]-4,5-dihydro-1H-pyrazolo[4,3-h]quinazoline-3-carboxamide], for which the IC50 is 150 nM. Against the preceding molecule, the IC50 is about 1.5-fold higher.

`CCc1cccc(CC)c1NC(=O)c1nn(C)c2c1CCc1cnc(NC3CCN(S(C)(=O)=O)CC3)nc1-2` [Compound 57, N-(2,6-diethylphenyl)-1-methyl-8-{[1-(methylsulfonyl)piperidin-4-yl]amino}-4,5-dihydro-1H-pyrazolo[4,3-h]quinazoline-3-carboxamide] displayed an IC50 of 130 nM.

In the case of `CCc1cccc(CC)c1NC(=O)c1nn(C)c2c1CCc1cnc(NC3CCN(C(=O)CCNC)CC3)nc1-2` [Compound 66, N-(2,6-diethylphenyl)-1-methyl-8-{[1-(N-methyl-beta-alanyl)piperidin-4-yl]amino}-4,5-dihydro-1H-pyrazolo[4,3-h]quinazoline-3-carboxamide], the IC50 is 650 nM.

Turning to `Cn1nc(C(=O)N(O)C2CCCCC2)c2c1-c1nc(NC3CCCC3)ncc1CC2` [Prior art compound, N-cyclohexyl-8-(cyclopentylamino)-N-hydroxy-1-methyl-4,5-dihydro-1H-pyrazolo[4,3-h]quinazoline-3-carboxamide, reference compound], half-maximal inhibition (IC50) required 3400 nM.
